Reference: patent US20230338338A1, “PHARMACEUTICAL COMPOSITIONS COMPRISING IONIC LIQUIDS” (The Provost, Fellows, Foundation Scholars, and the other …, priority 2021, published 2023)

Assays:
Format in all cases: physicochemical
[1] = Thermodynamic stability and miscibility of the ionic liquid in dissolution media (stirred 24 hours at 37° C., then monitored for two years); conditions: for miscibility with dissolution medium: 2 to 85% w/w; for thermodynamic stability (crystallisation or liquid-liquid phase separation): 2 to 85% w/w BMIm Ibu:dissolution medium, stirred 24 hours at 37° C., then ambient conditions over two years
Description: The thermodynamic stability of BMIm Ibu (ionic liquid) in deionised water (DIW) and simulated intestinal fluid (SIF; 0.05 M phosphate buffer, pH 6.8) was quantified as follows: Ratios of 2 to 85% w/w BMIm Ibu:dissolution medium were placed in small vials and allowed to stir for 24 hours at 37° C.

[2] = Dissolution study, USP Apparatus 2, simulated intestinal fluid (SIF); conditions: 0.05M phosphate buffer (pH 6.8), 900 ml, 37° C., 50 rpm, equivalent of 200 mg ibuprofenate ion, after 10 minutes until the end of four hours
Description: (§1) Dissolution studies were performed using a USP Apparatus 2 with a Sotax AT7 dissolution bath (Carl Stuart Limited, Dublin, Ireland). The mass of powder corresponding to the equivalent of 200 mg of ibuprofenate ion (equivalent to one dose) was added to 900 ml of dissolution media equilibrated at 37° C. stirred at 50 rpm. Samples were taken and replaced with fresh media every 5 min for the first 30 min, then at 45 min, 60 min and then every 30 min for the remainder of the experiment. The first 2 ml of each 5 ml sample was filtered and discarded before the remaining sample was filtered through a 0.45 μm nylon filter into a HPLC vial. All experiments were carried out in triplicate. A sample of the powder was assayed by completely dissolving it in methanol (n=3) and finding the ionic liquid content by HPLC.
The dissolution of powders 1 and 5 to 8 in simulated intestinal fluid (SIF), 0.05M phosphate buffer (pH 6.8) over a period of four hours was studied.
The dissolution of powders 9 and 10 in simulated intestinal fluid (SIF), 0.05M phosphate buffer (pH 6.8) over a period of four hours was studied.

[3] = Dissolution study, USP Apparatus 2, deionised water; conditions: 900 ml, 37° C., 50 rpm, equivalent of 200 mg ibuprofenate ion, after 10 minutes until the end of four hours
Description: as §1
The dissolution of powders 1 and 5 to 8 in deionised water over a period of four hours was studied.
The dissolution of powders 9 and 10 in deionised water over a period of four hours was studied.
An ibuprofen amorphous solid dispersion was also tested. The amorphous solid dispersion was prepared by spray drying a solution of ibuprofen and hydroxypropyl methylcellulose in methanol in the same way as Powders 1 to 8. The ibuprofen content of the amorphous solid dispersion was the same as Powder 1.

[4] = simulated intestinal fluid (SIF; 0.05 M phosphate buffer, pH 6.8)

Row | miscibility with dissolution medium ([1]; deionised water (DIW)) | miscibility with dissolution medium [1, 4] | level of dissolution [2] [%] | level of dissolution [3] [%] | SMILES | thermodynamic stability (crystallisation or liquid-liquid phase separation) ([1]; deionised water (DIW)) | thermodynamic stability (crystallisation or liquid-liquid phase separation) [1, 4]
1 | fully miscible | fully miscible |  |  | CC(C)Cc1ccc(C(C)C(=O)[O-])cc1.CCCCn1cc[n+](C)c1 (stereo not drawn) [BMIm Ibu, 1-butyl-3-methyl imidazolium ibuprofenate] | No crystallisation or phase separation was observed | No crystallisation or phase separation was observed
2 |  |  | 100 | ≤ 30 | CC(C)Cc1ccc(C(C)C(=O)O)cc1 (stereo not drawn) [crystalline ibuprofen, ibuprofen] |  | 
